Experimental findings from patent US20230257383A1, “COMPOUND SERVING AS BTK INHIBITOR, PREPARATION METHOD THEREFOR, AND USE THEREOF” (CHENGDU HYPERWAY PHARMACEUTICALS CO., LTD., priority 2020, published 2023) are described below.

Series [1] can be described thus: Pharmacokinetic test, oral, SD rats. It is filed as in vivo. As to conditions: oral 10 mg/kg. The procedure: Each test compound was administered orally (10 mg/kg, 3 rats in each group) to SD rats for pharmacokinetic study. […] Animals were fasted overnight before oral administration, and fed again after 4 h of administration. […] At each collection time point, 3 whole blood samples were collected at a the collection volume of about 0.2-0.3 mL. […] The collected plasma was stored at −20° C. before analysis. 20 μL of plasma sample was added into a 1.6 mL 96-well deep-well plate, added with 200 μL of working internal standard solution (the same volume of vehicle was added to the blank instead of internal standard), vortexed for 1 min, and centrifuged at 5800 rpm for 10 min. 100 μL of the supernatant was added to a 96-well injection plate for LC-MS/MS analysis.

In a further series the test system is TMD8 cell proliferation. The series is described as follows: In vitro cell proliferation inhibitory activity test (CTG), TMD8. To be noted: Homo sapiens, TMD8, 72 h, TMD8 cells. It is filed as cell-based. The procedure: (§1) Test Example 4: In Vitro Cell Proliferation Inhibitory Activity Test
(§2) Cells were cultured in 1640 medium, added with 10% inactivated FBS and 1% double antibiotics, and cultured at 37° C. and 5% CO2.
(§3) (1) Cells were routinely cultured until the cell density was 80%-90%, and the cells were harvested when their number reached the requirement.
(§4) (2) Cells were resuspended with corresponding culture medium, counted, and prepared into cell suspension at appropriate density.
(§5) (3) The cell suspension was added to a 96-well plate, 100 μL per well.
(§6) (4) Cells were cultured overnight in a 37° C., 5% CO2 incubator.
(§7) (1) The compounds to be tested were diluted with DMSO to make a stock solution with a final concentration of 20 mM for later use.
(§8) (2) The stock solution was diluted 10 times from 20 mM to 2 mM with DMSO, and then diluted 3 times from 2 mM to 9 concentrations.
(§9) (3) The blank control wells were cells plus 0.5% DMSO, as high-reading control wells.
(§10) (4) Wells with no cells and only medium were used as low-reading control wells.
(§11) 4: Cell treatment with compound
(§12) (1) 24 h after the cells were plated, the compounds acted alone, and 99 μL of growth medium was added to each well, followed by 1 μL of the compound prepared in step 3. The plate was shaken gently to mix uniformly, and then placed in a 37° C., 5% CO2 incubator.
(§13) (2) The cell plate was placed in an incubator for 72 h.
(§14) 5: Detection by CTG method
(§15) (1) The cell plate to be tested was placed at room temperature for 30 min, and 100 μL of medium was discarded from each well.
(§16) (2) 100 μL of CTG reagent (CelltiterGlo kit) was added to each well, placed on a fast shaker for 2 min, and stood at room temperature in the dark for 30 min.
(§17) (3) The chemiluminescent signal value was read with the Envision instrument.
(§18) IC50 was calculated by using GraphPad Prism 8 software. The IC50 (half inhibitory concentration) of the compound was derived using the following nonlinear fitting formula, and the results are shown in the following table:
(§19) Y=Bottom+(Top−Bottom)/(1+10^((Log IC50−X)×HillSlope))
(§20) X: log value of compound concentration, Y: inhibition rate (% inhibition)
(§21) Inhibition rate (% inhibition)=(reading of high-reading control well-reading of compound well)/(reading of high-reading control well-reading of low-reading control well)×100

The subject of series [2] is TMD8 mouse subcutaneous xenograft tumor. Description: TMD8 pharmacodynamic model test. It counts as in vivo. As to conditions: same dose of 10 mg/kg, FIG. 1. As to the method:
Test Example 7: TNMD8 Pharmacodynamic Model Test
Human diffuse large B-cell lymphoma TMD8 cells were monolayer-cultured in vitro in RPNHI1640 medium with […], 100 U/mL penicillin and 100 μg/mL streptomycin, in a 37° C., […] incubator. Routine digestion with trypsin-EDTA was performed twice a week for passaging. When the cell density was […] and the number reached the requirement, cells were harvested, counted and inoculated. 0.2 ml (1×10^7 cells) of TMVD8 cells (added with matrigel at a volume ratio of 1:1) were subcutaneously inoculated on the right back of each mouse. The mice were administered in groups when the average tumor volume reached about 137 mm^3. Tumor diameters were measured twice a week with vernier calipers. The tumor volume was calculated by the formula V=0.5 a×b^2, where a and b represent the long and short diameters of the tumor, respectively.

The nature of series [3]: Liver microsome metabolic stability test (rat). It is filed as in vitro ADME. As to conditions: liver microsomes, read-out: CLint (μL/min/mg) Rat. The procedure:
(§22) 1: To the sample wells of T0, T5, T10, T20, T30, T60 and NCF60, 10 μL of the test or reference working solution and 80 μL of microsome working solution (hepatic microsome with a protein concentration of 0.5 mg/mL) were added, and to Blank60 well, only the microsome working solution was added. Then samples of the Blank60, T5, T10, T20, T30 and T60 other than TO and NCF60 were placed in a 37° C. water bath and pre-incubated for about 10 min.
(§23) 2: To the TO sample well, 300 μL of stop solution (containing 200 ng/mL tolbutamide and 200 ng/mL labetalol in acetonitrile solution) was added first, followed by 10 μL of NADPH regeneration system working solution.
(§24) 3: After the pre-incubation of Blank60, T5, T10, T20, T30 and T60 incubation plates, 10 μL of NADPH regeneration system working solution was added to each sample well to start the reaction, and 10 μL of 100 mM potassium phosphate buffer was added to the NCF60 sample well.
(§25) 4: After incubation for an appropriate time (such as 5, 10, 20, 30 and 60 min), to each test sample well and control well of the Blank60, T5, T10, T20, T30, T60 and NCF60 plates, 300 μL of stop solution was added to terminate the reaction.
(§26) 5: All sample plates were shaken to mix well and centrifuged at 4000 rpm for 20 min, and 100 μL of the supernatant of the test sample or control sample was taken and diluted with 300 μL of pure water for LC-MS/MS analysis.
(§27) 6: Data analysis: T1/2 and CLint(mic) (μL/min/mg) values were calculated according to the first-order elimination kinetics. The first-order elimination kinetics equation was: […]

A short description of series [4]: Liver microsome metabolic stability test (human). It counts as in vitro ADME. To be noted: liver microsomes, read-out: CLint (μL/min/mg) Human. The procedure: as §22, §23, §24, §25, §26, §27
A general note: Microsomes from liver hold many membrane-bound enzymes, among them those of drug oxidation.

The test system of the next series is DOHH2 cell proliferation. Description: In vitro cell proliferation inhibitory activity test (CTG), DOHH2. It counts as cell-based. As to conditions: Homo sapiens, DOHH-2. As to the method: as §1, §2, §3, §4, §5, §6, §7, §8, §9, §10, §11, §12, §13, §14, §15, §16, §17, §18, §19, §20, §21

For orientation: IC50 means the concentration needed to halve the response being measured. Higher therefore signals lower potency. Consider `Nc1nccn2c(C34CCC(CO)(CC3)OC4)nc(-c3ccc(C(=O)Nc4cc(C(F)(F)F)ccn4)cc3)c12` [Example 118], for which the “Cl” value in series [1] stood at 0.8 mL/min/kg. Besides, the IC50 was determined as 23.8 nM in the series with TMD8 cell proliferation and 250 nM in the series with DOHH2 cell proliferation. Besides, the “inhibitory effect against the tumor compared with ARQ-531 and ibrutinib” value in series [2] was “significantly better inhibitory effect against the tumor than the clinical phase II drug ARQ-531 and the marketed drug ibrutinib”. Moreover, the microsomal CLint was 13.7 µL/min/mg in series [3] and < 9.6 µL/min/mg in series [4].
